In patent US12622886B2, “Compositions comprising amino acids for prevention and/or treatment of cancer” (Professional Dietetics S.p.A., priority 2020, dated 2026):

Tested on: MCF7 breast cancer cells
Experiment: MCF7 proliferation (acid phosphatase assay and Trypan blue exclusion)
Type: cell-based, human
Conditions: 1% α5 for 48 h and 1 μM DOX for 16 h
Experimental: MCF-7 cells were cultured in DMEM as above and treated with 1% α5 composition for 48 h and 1 μM doxorubicin (DOX; Sigma-Aldrich, Milan, Italy) for 16 h (FIG. 7).
To quantify MCF7 cell growth, acid phosphatase assay was used as described [Yang T T et al. 1996 Anal Biochem. 241(1):103-8]. Briefly, MCF7 cells were placed in 96-well plates at 5,000 to 20,000 cells per well density and treated with 1% α5 (for 48 h) and 1 μM DOX (for 16 h). Culture medium was removed and each well washed once with phosphate-buffered saline (PBS, pH 7.2), and added with 100 μl buffer containing 0.1 M sodium acetate (pH 5.0), 0.1% Triton X-100, and 5 mM p-nitrophenyl phosphate (pNPP). Then, plates were placed in a 37° C. incubator for 2 h. The reaction was stopped with the addition of 10 μl 1 N NaOH, and color development was assessed at 405 nm. Non-enzymatic pNPP hydrolysis was measured in wells without cells.

## COc1cccc2c1C(=O)c1c(O)c3c(c(O)c1C2=O)C[C@@](O)(C(=O)CO)C[C@@H]3O[C@H]1C[C@H](N)[C@H](O)[C@H](C)O1 [DOX, doxorubicin]
  anti-proliferative effect of DOX together with the α5 composition: completely unaffected
